In patent publication US20260042764A1, “COMPOSITIONS AND METHODS FOR INHIBITION OF KRAS” (TheRas, Inc., priority 2022, published 2026):

How the values were obtained:
[1] = target: T1, Avi-KRAS G12V (2-169) GTP/RAF1 RBD-3xFLAG (51-131) (Homo sapiens, UniProt P01116, G12V); assay: Raf1-KRAS G12V-GTP disruption HTRF assay (Biological Example 3); format: binding; conditions: KRAS G12V, GTP-loaded
T1 construct: Avi-KRAS G12V (2-169)
Procedure: (§1) Biological Example 3: Disrupting RAS-Effector Binding HTRF Assay
(§2) A protein:protein interaction (PPI) Homogeneous Time Resolved Fluorescence (HTRF) assay was used to determine the effectiveness of compounds in disrupting KRAS protein and effector (RAF1) binding.
(§3) The HTRF assay used the following reagents and proteins: (i) 50 nM Avi-KRAS G12D (2-169) GTP/RAF1 RBD-3xFLAG (51-131): (ii) 50 nM Avi-KRAS G12C (2-169) GTP/RAF1 RBD-3xFLAG (51-131): (iii) 50 nM Avi-KRAS G12V (2-169) GTP/RAF1 RBD-3xFLAG (51-131); (iv) 50 nM Avi-KRAS WT (2-169) GTP/RAF1 RBD-3xFLAG (51-131); and (v) 75 nM 3xFLAG-RAF1 RBD (51-131)-Avi. The assay buffer included: 50 mM Tris pH 7.5 (Invitrogen, 15567-027), 100 mM NaCl (Sigma, S5150-IL), 5 mM MgCl2 (Sigma, 63069), 0.1% BSA (Sigma, A7030), 0.01% Tween 20 (Sigma, P7949), 10% DMSO (Cell Signaling, 12611). The bead buffer included: 50 mM Tris pH 7.5 (Invitrogen, 15567-027), 0.01% Tween 20 (Sigma, P7949). An assay volume of 20 μL was used in a 384 well plate-low volume format. Compound titration: 30-0.005 μM, 3x dilution series.
(§4) The HTRF assay employed the following protocol:
(§5) Compounds were dispensed in assay plate (384-well, Grenier Bio-One #784075) using Echo (model 555) with dose response settings: 200 nL final volume, titration from 30 μM as a 10-point dilution series. Proteins and HTRF reagents were mixed and dispensed onto plates, 20 μL per well, and then incubated for 1 h at room temperature, with 700 rpm shaking.
(§6) Plates were analyzed on an Envision plate reader using the following setting: Excitation 320 nm, Bandwidth 75 nm; Emission 615 nm, Bandwidth 85 nm; Gain 100%; Flashes 100; Lag 60 μs. Data was reported as percentage of activity, with DMSO as 100%. Data was plotted and analyzed using Prism 8.
(§7) The biochemical Raf1-KRAS G12D/G12V/G12C/WT-GTP disruption assay IC50 of selected compounds described herein are shown in Table 12.

[2] = target: T2, Avi-KRAS G12D (2-169) GTP/RAF1 RBD-3xFLAG (51-131) (Homo sapiens, UniProt P01116, G12D); assay: Raf1-KRAS G12D-GTP disruption HTRF assay (Biological Example 3); format: binding; conditions: KRAS G12D, GTP-loaded
T2 construct: Avi-KRAS G12D (2-169)
Procedure: as §1, §2, §3, §4, §5, §6, §7

SW620 cells (KRAS G12V) = assay: Cell-based pERK HTRF assay in SW620 cell (Biological Example 4); conditions: Homo sapiens, SW-620, SW620 (KRAS G12V) cells
Summary of the method: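 SW620 seeded in RPMI/10% FBS, next day dosed 4 h (top 1 μM, half-log, 9 pts, 0.25% DMSO). Lysed, pERK by d2/Eu cryptate HTRF, 4–24 h RT, 615 nm read.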

[3] = target: T3, Avi-KRAS G12C (2-169) GTP/RAF1 RBD-3xFLAG (51-131) (Homo sapiens, UniProt P01116, G12C); assay: Raf1-KRAS G12C-GTP disruption HTRF assay (Biological Example 3); format: binding; conditions: KRAS G12C, GTP-loaded
T3 construct: Avi-KRAS G12C (2-169)
Procedure: as §1, §2, §3, §4, §5, §6, §7

GP2d cells (KRAS G12D) = assay: Cell-based pERK HTRF assay in GP2d cell (Biological Example 2); conditions: GP2d, GP2d (KRAS G12D) cells
Summary of the method: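 Cells grown in DMEM with 10% FBS were exposed to compound for 60 min at 0.25% DMSO, using a 9-point half-log series starting at 1 μM or 100 nM. Lysates were then mixed with d2 and Eu cryptate antibodies for 4–24 h at room temperature, and pERK was read by HTRF.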

[4] = target: T4, Avi-KRAS WT (2-169) GTP/RAF1 RBD-3xFLAG (51-131) (Homo sapiens, UniProt P01116); assay: Raf1-KRAS WT-GTP disruption HTRF assay (Biological Example 3); format: binding; conditions: KRAS WT, GTP-loaded
T4 construct: Avi-KRAS WT (2-169)
Procedure: as §1, §2, §3, §4, §5, §6, §7

T2 sequence (P01116 2-169 isoform P01116-2 G12D): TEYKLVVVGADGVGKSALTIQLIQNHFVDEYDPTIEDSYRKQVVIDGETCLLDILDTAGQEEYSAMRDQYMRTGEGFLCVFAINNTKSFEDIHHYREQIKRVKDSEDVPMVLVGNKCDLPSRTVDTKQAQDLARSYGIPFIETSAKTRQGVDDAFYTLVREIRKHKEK
T1 sequence (P01116 2-169 isoform P01116-2 G12V): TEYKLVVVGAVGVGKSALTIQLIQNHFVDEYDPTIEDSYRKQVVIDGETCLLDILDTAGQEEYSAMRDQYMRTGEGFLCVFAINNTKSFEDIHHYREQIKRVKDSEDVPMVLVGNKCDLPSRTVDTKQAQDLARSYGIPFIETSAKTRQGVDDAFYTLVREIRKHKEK
T3 sequence (P01116 2-169 isoform P01116-2 G12C): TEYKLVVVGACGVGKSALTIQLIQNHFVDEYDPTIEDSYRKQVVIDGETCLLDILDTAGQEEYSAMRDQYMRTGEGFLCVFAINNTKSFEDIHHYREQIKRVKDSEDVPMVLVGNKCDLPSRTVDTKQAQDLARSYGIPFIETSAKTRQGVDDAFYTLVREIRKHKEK
T4 sequence (P01116 2-169 isoform P01116-2): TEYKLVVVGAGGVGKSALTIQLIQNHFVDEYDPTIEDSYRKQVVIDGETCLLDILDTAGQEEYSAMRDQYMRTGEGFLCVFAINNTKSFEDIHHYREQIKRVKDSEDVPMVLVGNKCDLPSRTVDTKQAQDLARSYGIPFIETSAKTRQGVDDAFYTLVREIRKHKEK

Compound | IC50 [1] [nM] | IC50 [2] [nM] | IC50 (SW620 cells (KRAS G12V)) [nM] | IC50 [3] [nM] | IC50 (GP2d cells (KRAS G12D)) [nM] | IC50 [4] [nM]
C/C=C/C(=O)N1C[C@@H](N(CC)c2nc(OC[C@@]34CCCN3C[C@H](F)C4)nc3c(F)c(-c4ccc(F)c5sc(N)c(C#N)c45)c(C(F)(F)F)cc23)C[C@@H]1COC (atropisomer, axis not shown) [Compound 845] | 100 to 1000 | 100 to 1000 | < 100 | 100 to 1000 | < 100 | 100 to 1000
CCN(c1nc(OC[C@@]23CCCN2C[C@H](F)C3)nc2c(F)c(-c3ccc(F)c4sc(N)c(C#N)c34)c(C(F)(F)F)cc12)[C@H]1CCN(C(=O)[C@H]2C[C@H](F)C2)C1 (atropisomer, axis not shown) [Compound 846] | 100 to 1000 | 100 to 1000 | < 100 | 100 to 1000 | < 100 | 100 to 1000
CCN(c1nc(OC[C@@]23CCCN2C[C@H](F)C3)nc2c(F)c(-c3ccc(F)c4sc(N)c(C#N)c34)c(C(F)(F)F)cc12)[C@H]1C[C@H](COC)N(C(=O)[C@H]2C[C@H]2F)C1 (atropisomer, axis not shown) [Compound 847] | 100 to 1000 | 100 to 1000 | < 100 | 100 to 1000 | < 100 | 100 to 1000
CCN(c1nc(OC[C@@]23CCCN2C[C@H](F)C3)nc2c(F)c(-c3ccc(F)c4sc(N)c(C#N)c34)c(C(F)(F)F)cc12)[C@H]1C[C@H](COC)N(C(=O)[C@@H]2C[C@H]2F)C1 (atropisomer, axis not shown) [Compound 848] | 100 to 1000 | 100 to 1000 | < 100 | 100 to 1000 | < 100 | 100 to 1000
CCN(c1nc(OC[C@@]23CCCN2C[C@H](F)C3)nc2c(F)c(-c3ccc(F)c4sc(N)c(C#N)c34)c(C(F)(F)F)cc12)[C@H]1CCN(C(=O)OCC(F)(F)F)C1 (atropisomer, axis not shown) [Compound 849] | 100 to 1000 | 100 to 1000 | < 100 | 100 to 1000 | < 100 | 100 to 1000
CCN(c1nc(OC[C@@]23CCCN2C[C@H](F)C3)nc2c(F)c(-c3ccc(F)c4sc(N)c(C#N)c34)c(C(F)(F)F)cc12)[C@H]1CCN(C(=O)O[C@H](C)C(F)(F)F)C1 (atropisomer, axis not shown) [Compound 850] | 1000 to 10000 | 100 to 1000 | < 100 | 100 to 1000 | < 100 | 1000 to 10000
CCN(c1nc(OC[C@@]23CCCN2C[C@H](F)C3)nc2c(F)c(-c3ccc(F)c4sc(N)c(C#N)c34)c(C(F)(F)F)cc12)[C@H]1CCN(C(=O)N2CC3(CCO3)C2)C1 (atropisomer, axis not shown) [Compound 851] | 100 to 1000 | 100 to 1000 | < 100 | 100 to 1000 | < 100 | 100 to 1000
CCN(c1nc(OC[C@@]23CCCN2C[C@H](F)C3)nc2c(F)c(-c3ccc(F)c4sc(N)c(C#N)c34)c(C(F)(F)F)cc12)[C@H]1C[C@H](COC)N(C(=O)[C@@H]2CCO2)C1 (atropisomer, axis not shown) [Compound 853] | 100 to 1000 | 100 to 1000 | < 100 | 100 to 1000 | < 100 | 100 to 1000
CCN(c1nc(OC[C@@]23CCCN2C[C@H](F)C3)nc2c(F)c(-c3ccc(F)c4sc(N)c(C#N)c34)c(C(F)(F)F)cc12)[C@H]1C[C@H](COC)N(C(=O)[C@@H]2CC2(F)F)C1 (atropisomer, axis not shown) [Compound 854] | 100 to 1000 | 100 to 1000 | < 100 | 100 to 1000 | < 100 | 100 to 1000
CN(Cc1cocn1)c1nc(OC[C@@]23CCCN2C[C@H](F)C3)nc2c(F)c(-c3ccc(F)c4sc(N)c(C#N)c34)c(C(F)(F)F)cc12 (atropisomer, axis not shown) [Compound 855] | 100 to 1000 | 100 to 1000 | < 100 | 100 to 1000 | < 100 | 100 to 1000
CN(Cc1ccon1)c1nc(OC[C@@]23CCCN2C[C@H](F)C3)nc2c(F)c(-c3ccc(F)c4sc(N)c(C#N)c34)c(C(F)(F)F)cc12 (atropisomer, axis not shown) [Compound 856] | 100 to 1000 | 100 to 1000 | < 100 | 1000 to 10000 | < 100 | 1000 to 10000
CCN(c1nc(OC[C@@]23CCCN2C[C@H](F)C3)nc2c(F)c(-c3ccc(F)c4sc(N)c(C#N)c34)c(C(F)(F)F)cc12)[C@H]1CCN(C(=O)C(CF)CF)C1 (atropisomer, axis not shown) [Compound 857] | 100 to 1000 | 100 to 1000 | < 100 | 100 to 1000 | < 100 | 100 to 1000
CCN(c1nc(OC[C@@]23CCCN2C[C@H](F)C3)nc2c(F)c(-c3ccc(F)c4sc(N)c(C#N)c34)c(C(F)(F)F)cc12)[C@@H]1CN2C(=O)N(C)C[C@]2(C)C1 (atropisomer, axis not shown) [Compound 858] | 100 to 1000 | 100 to 1000 | < 100 | 100 to 1000 | < 100 | 100 to 1000
[2H][C@]1(N(CC)c2nc(OC[C@@]34CCCN3C[C@H](F)C4)nc3c(F)c(-c4ccc(F)c5sc(N)c(C#N)c45)c(C(F)(F)F)cc23)CCN(C(=O)N(C)C)C1 (atropisomer, axis not shown) [Compound 859] | 100 to 1000 | 100 to 1000 | < 100 | 100 to 1000 | < 100 | 100 to 1000
[2H][C@]1(N(CC)c2nc(OC[C@@]34CCCN3C[C@H](F)C4)nc3c(F)c(-c4ccc(F)c5sc(N)c(C#N)c45)c(C(F)(F)F)cc23)CCN(C(=O)C(C)C)C1 (atropisomer, axis not shown) [Compound 860] | 100 to 1000 | 100 to 1000 | < 100 | 100 to 1000 | < 100 | 100 to 1000
